Assay results taken from patent US7714134B2, “Compounds and use of tetrahydropyridothiophenes” (4SC AG, priority 2004, dated 2010).

Experiments:
[1] = test system: RKO (RKOp27) human colon adenocarcinoma cells; test: Alamar Blue cell viability assay, anti-proliferative/cytotoxic activity, RKO p27 uninduced; type: cell-based; settings: RKOp27, 72 h, proliferating cells, absence of the inducer Ponasterone A, 72 hours incubation
Method: The anti-proliferative/cytotoxic activity of the compounds described herein, can be tested on subdlones of RKO (RKOp27) human colon adenocarcinoma cells (Schmidt et al., Oncogene 19, 2423-2429; 2000) using the Alamar Blue cell viability assay (described in O'Brien et al. Eur J Biochem 267, 5421-5426, 2000). The compounds are dissolved as 20 mM solutions in dimethylsulfoxide (DMSO) and subsequently diluted in semi-logarithmic steps. DMSO dilutions are further diluted 1:100 into Dulbecco's modified Eagle's medium (DMEM) containing 10% fetal calf serum to a final concentration twice as much as the final concentration in the test. RKO subclones are seeded into 96 well flat bottom plates at a density of 4000 cells per well in a volume of 50 µl per well. 24 hours after seeding the 50 μl each of the compound dilutions in DMEM medium are added into each well of the 96 Well plate. Each compound dilution is tested as quadruplicates. Wells containing untreated control cells are filled with 50 μl DMEM medium containing 1% DMSO. The cells are then incubated with the substances for 72 hours at 37° C. in a humidified atmosphere containing 5% carbon dioxide. To determine the viability of the cells, 10 μl of an Alamar Blue solution (Biosource) are added and the fluorescence is measured at an extinction of 544 nm and an emission of 590 nm. For the calculation of the cell viability the emission value from untreated cells is set as 100% viability and the emission rates of treated cells are set in relation to the values of untreated cells. Viabilities are expressed as % values.
The corresponding IC50 values of the compounds for anti-proliferative/cytotoxic activity are determined from the concentration-effect curves.
Representative IC50 values for anti-proliferation/cytotoxicity determined for the compounds mentioned and numbered as Examples in the examples above follow from the following table A (1st column), in which the numbers of the compound correspond to the numbers of the examples. Any or all of the compounds according to the present invention which are listed in the Table A, as well as their salts, are to be mentioned as a particular interesting subject of the present invention.

[2] = test system: RKO colon adenocarcinoma cells (RKOp27) arrested by expression of ectopic p27Kip1; test: Alamar Blue cell viability assay, cell cycle specific mode of action, RKO p27 induced (arrested by Ponasterone A-induced p27Kip1); type: cell-based; settings: Homo sapiens, RKOp27, 72 h, cells arrested by p27Kip1 induced with 10 μM Ponasterone A, 72 hours incubation
Method: To determine the cell cycle specific mode of action, subdlones of RKO colon adenocarcinoma cells (RKOp27 or RKOp21 as described by Schmidt et al. in Oncogene 19, 2423-2429; 2000) are seeded into 96 well flat bottom plates at a density of 16000 cells per well in a volume of 50 μl per well in DMEM growth medium with 10% FCS containing 10 μM Ponasterone A. 24 hours after seeding the 50 μl each of the compound dilutions in DMEM medium are added into each well of the 96 Well plate. Each compound dilution is tested as quadruplicates. Wells containing untreated control cells are filled with 50 μl DMEM medium containing 1% DMSO. The cells are then incubated with the substances for 72 hours at 37° C. in a humidified atmosphere containing 5% carbon dioxide. To determine the viability of the cells, 10 μl of an Alamar Blue solution (Biosource) are added and the fluorescence was measured at an extinction of 544 nm and an emission of 590 nm. For the calculation of the cell viability the emission value from untreated cells is set as 100% viability and the emission rates of treated cells are set in relation to the values of untreated cells. Viabilities are expressed as % values. Viability is compared of proliferating cells grown in the absence of the inducer Ponasterone A, versus viability of cells arrested by the expression of ectopic p27Kip1 induced by Ponasterone A. The data of this experimental setting are summarized in table A (2nd column).

| IC50 [2] [µM] | Compound | IC50 [1] [µM] |
| --- | --- | --- |
| > 100 | COc1cc(OC)cc(C(=O)Nc2sc3c(c2C#N)CCN(C(C)=O)C3)c1 [Compound 26, N-(6-Acetyl-3-cyano-4,5,6,7-tetrahydro-thieno[2,3-c]pyridin-2-yl)-3,5-dimethoxy-benzamide] | ≤ 2 |
| > 60 | N#Cc1c(NC(=O)c2ccccc2)sc2c1CCN(C(=O)OCCCN1CCOCC1)C2 [Compound 70, 3-Cyano-2-[(1-phenyl-methanoyl)-amino]-4,7-dihydro-5H-thieno[2,3-c]pyridine-6-carboxylic acid 3-morpholin-4-yl-propyl ester] | ≤ 3 |
| > 100 | CCCCCCC(=O)N1CCc2c(sc(NC(=O)c3ccccc3)c2C#N)C1 [Compound 6] | ≤ 2 |
| > 60 | CCCOC(=O)N1CCc2c(sc(NC(=O)c3ccccc3)c2C#N)C1 [Compound 64, 3-Cyano-2-[(1-phenyl-methanoyl)-amino]-4,7-dihydro-5H-thieno[2,3-c]pyridine-6-carboxylic acid propyl ester] | ≤ 3 |
| > 60 | CCOC(=O)N1CCc2c(sc(NC(=O)c3ccc([N+](=O)[O-])cc3)c2C#N)C1 [Compound 44, 3-Cyano-2-{[1-(4-nitro-phenyl)-methanoyl]-amino}-4,7-dihydro-5H-thieno[2,3-c]pyridine-6-carboxylic acid ethyl ester] | ≤ 3 |
| > 100 | N#Cc1c(NC(=O)c2ccccc2)sc2c1CCN(C(=O)CCCn1ccnc1)C2 [Compound 85, N-[3-Cyano-6-(4-imidazol-1-yl-butanoyl)-4,5,6,7-tetrahydro-thieno[2,3-c]pyridin-2-yl]-benzamide] | ≤ 3 |
| > 100 | N#Cc1c(NC(=O)c2ccccc2)sc2c1CCN(C(=O)CCCO)C2 [Compound 88, N-[3-Cyano-6-(4-hydroxy-butanoyl)-4,5,6,7-tetrahydro-thieno[2,3-c]pyridin-2-yl]-benzamide] | ≤ 3 |
| > 60 | N#Cc1c(NC(=O)c2ccccc2)sc2c1CCN(C(=O)OCC(O)CO)C2 (stereo not shown) [Compound 76, 3-Cyano-2-[(1-phenyl-methanoyl)-amino]-4,7-dihydro-5H-thieno[2,3-c]pyridine-6-carboxylic acid 2,3-dihydroxy-propyl ester] | ≤ 3 |
| > 100 | CCCC(=O)N1CCc2c(sc(NC(=O)c3cccc(OC)c3)c2C#N)C1 [Compound 25, N-(6-Butyryl-3-cyano-4,5,6,7-tetrahydro-thieno[2,3-c]pyridin-2-yl)-3-methoxy-benzamide] | ≤ 2 |
| > 60 | CCOC(=O)N1CCc2c(sc(NC(=O)c3ccc(OC)cc3)c2C#N)C1 [Compound 49, 3-Cyano-2-{[1-(4-methoxy-phenyl)-methanoyl]-amino}-4,7-dihydro-5H-thieno[2,3-c]pyridine-6-carboxylic acid ethyl ester] | ≤ 3 |
| > 60 | COC(=O)CCCC(=O)N1CCc2c(sc(NC(=O)c3ccccc3)c2C#N)C1 [Compound 38, 5-{3-Cyano-2-[(1-phenyl-methanoyl)-amino]-4,7-dihydro-5H-thieno[2,3-c]pyridin-6-yl}-5-oxo-pentanoic acid methyl ester] | ≤ 3 |
| > 100 | COC(=O)CCC(=O)N1CCc2c(sc(NC(=O)c3ccccc3)c2C#N)C1 [Compound 22, 4-{3-Cyano-2-[(1-phenyl-methanoyl)-amino]-4,7-dihydro-5H-thieno[2,3-c]pyridin-6-yl}-4-oxo-butyric acid methyl ester] | ≤ 2 |
| > 60 | CCCCOC(=O)N1CCc2c(sc(NC(=O)c3ccccc3)c2C#N)C1 [Compound 58, 3-Cyano-2-[(1-phenyl-methanoyl)-amino]-4,7-dihydro-5H-thieno[2,3-c]pyridine-6-carboxylic acid butyl ester] | ≤ 3 |
| > 100 | CCNC(=O)N1CCc2c(sc(NC(=O)c3ccccc3)c2C#N)C1 [Compound 98, 3-Cyano-2-[(1-phenyl-methanoyl)-amino]-4,7-dihydro-5H-thieno[2,3-c]pyridine-6-carboxylic acid ethylamide] | ≤ 3 |
| > 100 | COCCC(=O)N1CCc2c(sc(NC(=O)c3ccccc3)c2C#N)C1 [Compound 7, N-(3-Cyano-7-methoxyethylcarbonyl-4,5,6,7-tetrahydro-thien[2,3-c]pyridin-2-yl)-benzamide] | ≤ 2 |
| > 60 | CC(C)COC(=O)N1CCc2c(sc(NC(=O)c3ccccc3)c2C#N)C1 [Compound 56, 3-Cyano-2-[(1-phenyl-methanoyl)-amino]-4,7-dihydro-5H-thieno[2,3-c]pyridine-6-carboxylic acid isobutyl ester] | ≤ 3 |
| > 60 | N#Cc1c(NC(=O)c2ccccc2)sc2c1CCN(C(=O)CCNC(=N)N)C2 [Compound 39, N-[3-Cyano6-(3-guanidino-propanoyl)-4,5,6.7-tetrahydro-thieno[2,3-c]pyridin-2-yl]-benzamide] | ≤ 3 |
| > 60 | N#Cc1c(NC(=O)c2ccccc2)sc2c1CCN(C(=O)CCCc1c[nH]c3ccccc13)C2 [Compound 37, N-[3-Cyano-6-(4-1H-indol-3-yl-butanoyl)-4,5,6,7-tetrahydro-thieno[2,3-c]pyridin-2-yl]-benzamide] | ≤ 3 |
| > 60 | CCOC(=O)CC(=O)N1CCc2c(sc(NC(=O)c3ccccc3)c2C#N)C1 [Compound 31, 3-{3-Cyano-2-[(1-phenyl-methanoyl)-amino]-4,7-dihydro-5H-thieno[2,3-c]pyridin-6-yl}-3-oxo-propionic acid ethyl ester] | ≤ 3 |
| > 60 | COCC(=O)N1CCc2c(sc(NC(=O)c3ccccc3)c2C#N)C1 [Compound 32, N-[3-Cyano-6-(2-methoxy-ethanoyl)-4,6,7-tetrahydro-thieno[2,3-c]pyridin-2-yl]-benzamide] | ≤ 3 |
| > 60 | N#Cc1c(NC(=O)c2ccccc2)sc2c1CCN(C(=O)OCCc1ccccc1)C2 [Compound 65, 3-Cyano-2-[(1-phenyl-methanoyl)-amino]-4,7-dihydro-5H-thieno[2,3-c]pyridine-6-carboxylic acid phenethyl ester] | ≤ 3 |
| > 100 | Cc1ncsc1CCOC(=O)N1CCc2c(sc(NC(=O)c3ccccc3)c2C#N)C1 [Compound 17] | ≤ 2 |
| > 60 | N#Cc1c(NC(=O)c2ccccc2)sc2c1CCN(C(=O)OCCCc1cccnc1)C2 [Compound 72, 3-Cyano-2-[(1-phenyl-methanoyl)-amino]-4,7-dihydro-5H-thieno[2,3-c]pyridine-6-carboxylic acid 3-pyridin3-yl-propyl ester] | ≤ 3 |
| > 60 | N#Cc1c(NC(=O)c2ccccc2)sc2c1CCN(C(=O)OCCCc1ccncc1)C2 [Compound 69, 3-Cyano-2-[(1-phenyl-methanoyl)-amino]-4,7-dihydro-5H-thieno[2,3-c]pyridine-6-carboxylic acid 3-pyridin-4-yl-propyl ester] | ≤ 3 |
| > 100 | CC(=O)OCC(=O)N1CCc2c(sc(NC(=O)c3ccccc3)c2C#N)C1 [Compound 84, Acetic acid 2-3-cyano-2-[(1-phenyl-methanoyl)-amino]-4,7-dihydro-5H-thieno[2,3-c]pyridin-6-yl-2-oxo-ethyl ester] | ≤ 3 |
| > 100 | CCCCCOC(=O)N1CCc2c(sc(NC(=O)c3ccccc3)c2C#N)C1 [Compound 14] | ≤ 2 |
